ChEMBL document CHEMBL3232710, “Pyrroloquinolinone-based dual topoisomerase I/II inhibitor” (2014)
Active and inactive are the calls of the source. No cut-off for these calls is given here.

Key:
HL-60 = test: Growth inhibition of human HL60 cells after 72 hrs by trypan blue assay; format: functional; settings: HL-60, 72 h
Nucleic Acid = test: Binding affinity to salmon testes DNA assessed as intercalation at compound to DNA ratio of 0.04 by linear dichroism analysis; format: nucleic-acid assay; settings: Salmonidae
A-431 = test: Growth inhibition of human A431 cells after 72 hrs by trypan blue assay; format: functional; settings: A-431, 72 h
[1] = biological target: DNA topoisomerase 2-alpha (Homo sapiens) (UniProt P11388); test: Inhibition of human recombinant topoisomerase 2-alpha-mediated pBR322 DNA relaxation at 50 uM after 60 mins by agarose gel electrophoresis
DNA topoisomerase 2-alpha (Homo sapiens), sequence (P11388 whole entry, the tested form may be a part): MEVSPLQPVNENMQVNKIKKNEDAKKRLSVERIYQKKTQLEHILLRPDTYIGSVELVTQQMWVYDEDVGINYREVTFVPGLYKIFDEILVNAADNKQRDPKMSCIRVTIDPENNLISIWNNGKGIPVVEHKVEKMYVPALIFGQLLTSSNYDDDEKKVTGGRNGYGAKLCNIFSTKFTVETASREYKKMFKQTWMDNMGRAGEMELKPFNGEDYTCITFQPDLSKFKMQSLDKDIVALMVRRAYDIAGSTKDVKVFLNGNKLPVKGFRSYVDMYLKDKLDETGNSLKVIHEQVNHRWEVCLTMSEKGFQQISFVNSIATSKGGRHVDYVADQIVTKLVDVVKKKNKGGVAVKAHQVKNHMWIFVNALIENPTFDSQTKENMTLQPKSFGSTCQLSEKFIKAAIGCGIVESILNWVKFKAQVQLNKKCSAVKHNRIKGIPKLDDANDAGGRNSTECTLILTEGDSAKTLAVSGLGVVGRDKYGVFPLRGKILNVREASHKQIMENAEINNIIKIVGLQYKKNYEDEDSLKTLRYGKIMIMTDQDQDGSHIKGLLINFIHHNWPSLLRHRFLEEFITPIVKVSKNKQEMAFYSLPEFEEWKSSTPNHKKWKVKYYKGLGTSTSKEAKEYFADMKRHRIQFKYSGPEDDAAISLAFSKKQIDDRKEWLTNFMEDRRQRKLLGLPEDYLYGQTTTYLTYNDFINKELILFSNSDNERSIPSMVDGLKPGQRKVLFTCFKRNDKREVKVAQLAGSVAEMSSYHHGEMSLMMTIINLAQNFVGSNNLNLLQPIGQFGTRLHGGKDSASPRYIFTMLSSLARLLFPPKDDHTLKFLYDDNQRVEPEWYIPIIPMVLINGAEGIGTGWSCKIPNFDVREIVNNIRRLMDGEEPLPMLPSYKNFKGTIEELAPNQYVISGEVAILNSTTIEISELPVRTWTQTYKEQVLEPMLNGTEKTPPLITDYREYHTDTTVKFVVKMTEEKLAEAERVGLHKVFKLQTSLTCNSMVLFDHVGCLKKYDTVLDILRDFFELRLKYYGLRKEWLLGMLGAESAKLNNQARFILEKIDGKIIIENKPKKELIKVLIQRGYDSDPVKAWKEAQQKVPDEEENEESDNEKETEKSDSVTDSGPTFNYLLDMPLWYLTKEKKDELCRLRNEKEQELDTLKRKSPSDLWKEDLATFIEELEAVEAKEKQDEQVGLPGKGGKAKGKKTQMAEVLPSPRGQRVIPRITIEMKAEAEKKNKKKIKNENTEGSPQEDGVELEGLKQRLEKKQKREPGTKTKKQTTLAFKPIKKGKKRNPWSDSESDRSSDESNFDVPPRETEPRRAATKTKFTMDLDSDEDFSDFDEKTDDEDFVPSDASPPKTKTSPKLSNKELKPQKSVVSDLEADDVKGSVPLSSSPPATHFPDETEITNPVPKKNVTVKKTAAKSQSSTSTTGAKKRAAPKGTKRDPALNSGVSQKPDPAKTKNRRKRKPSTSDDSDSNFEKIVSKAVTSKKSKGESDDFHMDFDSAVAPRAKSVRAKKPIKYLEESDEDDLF

Bos taurus = organism: Bos taurus; test: Inhibition of calf thymus topoisomerase-1-mediated pBR322 DNA relaxation after 60 mins by agarose gel electrophoresis
[2] = biological target: DNA topoisomerase 2-alpha (Homo sapiens) (UniProt P11388); test: Inhibition of human recombinant topoisomerase 2-alpha-mediated pBR322 DNA relaxation at 20 uM after 60 mins by agarose gel electrophoresis
HeLa [3] = test: Growth inhibition of human HeLa cells after 72 hrs by trypan blue assay; format: functional
[4] = biological target: DNA topoisomerase 2-alpha (Homo sapiens) (UniProt P11388); test: Inhibition of human recombinant topoisomerase 2-alpha-mediated pBR322 DNA cleavage at 100 uM after 60 mins by agarose gel electrophoresis
HeLa [5] = test: Induction of apoptosis in human HeLa cells assessed as DNA fragmentation at 100 uM after 24 hrs by agarose gel electrophoresis; format: functional, cell-based

Row | GI50 (HL-60) | Activity (Nucleic Acid) | GI50 (A-431) | inhibition [1] | inhibition (Bos taurus) | inhibition [2] | GI50 (HeLa [3]) | inhibition [4] | SMILES | Activity (HeLa [5])
1 | > 50 µM | Active | 14.5 µM | inactive | – | – | – | – | Cc1cc(=O)n2c(C)cc3c(OCCCNCCN(C)C)ccc1c32 | –
2 | 8.3 µM | Active | 13.6 µM | Active | Dose-dependent effect | inactive | 19.7 µM | Active | Cc1cc(=O)n2c(C)cc3c(OCCCCNCCN(C)C)ccc1c32 | Active
3 | 25.7 µM | Active | 7.5 µM | Active | – | – | > 50 µM | – | Cc1cc(=O)n2c(C)cc3c(OCCNCCN(C)C)ccc1c32 | –
4 | > 50 µM | Active | 41.3 µM | inactive | – | inactive | > 50 µM | – | Cc1cc(=O)n2c(C)cc3c(OCCCCN(C)C)ccc1c32 | –

Row | SMILES | GI50 (HL-60) | Activity (Nucleic Acid) | GI50 (A-431) | inhibition [1] | inhibition (Bos taurus) | inhibition [2] | GI50 (HeLa [3]) | inhibition [4] | Activity (HeLa [5])
5 | Cc1c2ccncc2c(C)c2c1[nH]c1ccccc12 [ELLIPTECINE] | 2 µM | – | 3.2 µM | – | – | – | 0.3 µM | – | –
